{
  "source": "patent US20100105637A1",
  "about": "“Drug-surfactant complexes for sustained release” (priority 2005, published 2010)",
  "assay": "Fractional release of drug from tablets into stirred aqueous solution, measured by uv/vis spectroscopy",
  "type": "physicochemical",
  "settings": "150 mg tablets without binders or excipients, pH 7.0 water, stirred at 100 rpm (FIG. 1)",
  "note": "Structures can show the parent of a compound that is named as a salt.",
  "experimental": "The tablets were placed into pH 7.0 water and stirred with a stirrer at 100 rpm. Fractional release was determined by uv/vis spectroscopy of the aqueous solution at 278 nm to measure the concentration of diltiazem in solution.\nThe tablets were placed in pH 7.0 water and stirred at 100 rpm, and fractional release was measured as above.\nThe drug-bile complex was pressed into tablets without any binders or excipients as in Example 1.",
  "data": [
    {"smiles": "COc1ccc([C@@H]2Sc3ccccc3N(CCN(C)C)C(=O)[C@@H]2OC(C)=O)cc1", "note": "[diltiazem-HCl, Diltiazem-HCl]", "values": [
      {"measurement": "amount of diltiazem released at the first time point", "value": "all"}
    ]}
  ]
}
